Source: patent US6767909B2, “Compounds useful for treatment or prevention of disease mediated by alpha-2B-adrenoceptor” (Oy Juvantia Pharma Ltd., priority 2001, dated 2004)

Key:
[1] = molecular target: T1, human alpha-2A-adrenoceptor (Homo sapiens, UniProt P08913); assay: Human alpha-2-adrenoceptor binding affinity, 3H-rauwolscine competition binding; details: Mean ± SEM, membranes of Shionogi S115 cells transfected with human α2A
T1 construct: expressed in transfected cells
T1 sequence (P08913 1-465): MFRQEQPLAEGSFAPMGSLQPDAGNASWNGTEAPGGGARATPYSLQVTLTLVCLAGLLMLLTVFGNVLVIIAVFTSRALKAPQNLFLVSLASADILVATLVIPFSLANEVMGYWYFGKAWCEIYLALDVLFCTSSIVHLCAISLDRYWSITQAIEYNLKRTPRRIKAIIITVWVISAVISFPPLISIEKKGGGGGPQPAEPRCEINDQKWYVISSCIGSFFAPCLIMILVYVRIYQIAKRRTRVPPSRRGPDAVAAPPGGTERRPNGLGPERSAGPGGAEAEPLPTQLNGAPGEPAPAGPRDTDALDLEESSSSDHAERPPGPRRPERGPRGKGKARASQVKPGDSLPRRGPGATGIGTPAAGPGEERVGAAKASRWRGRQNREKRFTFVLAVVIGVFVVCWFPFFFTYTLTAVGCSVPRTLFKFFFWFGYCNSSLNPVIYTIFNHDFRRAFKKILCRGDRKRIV
Description: (§1) Results expressed in the form of “>” means that no numerical values for Ki's could be established due to lack of displacement or due to incomplete competition curves.
(§2) Human Alpha-2-adrenoceptor Binding Affinity
(§3) After 30 min at room temperature, incubations were terminated by rapid vacuum filtration through GF/B glass fiber filter and three 5 ml washes with ice-cold incubation buffer. The filters were then dried, impregnated with scintillate and their radioactivity was measured by scintillation counting. The analysis of the experiments was carried out by non-linear least square curve fitting. Experimentally determined IC50 values were converted to Ki's by making use of the Cheng-Prusoff equation (Cheng and Prusoff, 1973). Experiments were repeated a minimum of three times. to the incubation mixture. After an additional 60 min at room temperature, the incubation was terminated by rapid vacuum filtration through glass fibre filter. Filters were washed three times with 5 ml ice cold wash buffer (20 mM Tris, 5 mM MgCl2, 1 mM EDTA pH 7.4 at room temperature), dried and counted for radioactivity in a scintiallation counter. Analysis of experiments was carried out by non-linear least square fitting. Results are based on a minimum of three experiments.

[2] = molecular target: T2, human alpha-2C-adrenoceptor (Homo sapiens, UniProt P18825); assay: as above; details: Mean ± SEM, membranes of Shionogi S115 cells transfected with human α2C
T2 construct: expressed in transfected cells
T2 sequence (P18825 1-462): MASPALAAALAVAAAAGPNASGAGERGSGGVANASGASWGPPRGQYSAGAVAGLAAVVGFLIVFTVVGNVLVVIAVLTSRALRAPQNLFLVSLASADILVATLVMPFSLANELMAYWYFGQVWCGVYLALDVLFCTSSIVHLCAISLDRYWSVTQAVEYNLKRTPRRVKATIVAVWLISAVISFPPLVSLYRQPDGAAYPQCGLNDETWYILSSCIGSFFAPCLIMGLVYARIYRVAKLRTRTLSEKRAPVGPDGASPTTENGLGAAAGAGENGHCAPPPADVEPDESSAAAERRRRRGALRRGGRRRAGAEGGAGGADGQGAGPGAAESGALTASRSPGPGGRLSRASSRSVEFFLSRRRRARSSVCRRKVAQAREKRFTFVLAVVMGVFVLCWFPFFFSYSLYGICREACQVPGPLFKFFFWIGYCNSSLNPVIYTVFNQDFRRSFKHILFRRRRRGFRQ
Description: as §1, §2
as §3, with “Experimentally determined IC50 values were converted to Ki's by making use of the Cheng-Prusoff equation (Cheng and Prusoff, 1973).” left out

[3] = molecular target: T3, human alpha-2B-adrenoceptor (Homo sapiens, UniProt P18089); assay: as above; details: Mean ± SEM, membranes of Shionogi S115 cells transfected with human α2B
T3 construct: expressed in transfected cells
T3 sequence (P18089 1-450): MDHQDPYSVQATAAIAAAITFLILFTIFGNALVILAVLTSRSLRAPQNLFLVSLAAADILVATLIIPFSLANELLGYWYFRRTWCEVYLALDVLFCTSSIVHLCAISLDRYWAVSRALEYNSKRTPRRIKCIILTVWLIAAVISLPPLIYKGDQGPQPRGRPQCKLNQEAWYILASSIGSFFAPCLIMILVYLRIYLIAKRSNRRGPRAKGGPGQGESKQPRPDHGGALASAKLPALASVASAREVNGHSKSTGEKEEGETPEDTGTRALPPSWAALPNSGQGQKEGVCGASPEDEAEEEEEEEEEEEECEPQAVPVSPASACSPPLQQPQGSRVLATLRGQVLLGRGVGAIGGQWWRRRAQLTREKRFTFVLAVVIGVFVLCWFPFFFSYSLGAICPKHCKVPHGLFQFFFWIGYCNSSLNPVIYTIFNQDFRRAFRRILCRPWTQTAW
Description: as §1, §2
as §3, with “Experimentally determined IC50 values were converted to Ki's by making use of the Cheng-Prusoff equation (Cheng and Prusoff, 1973).” left out

[4] = molecular target: T1, human alpha-2A-adrenoceptor; assay: Antagonist activity: inhibition of epinephrine-stimulated 35S-GTPγS binding; type: biochemical; details: Mean ± SEM; CHO cell membranes, human α2A; 5 μM epinephrine; read-out: KB alpha-2A antagonist effect
Description: (§4) Antagonist Activity on Human Alpha-2-adrenoceptor Subtypes
Membranes (2-6 μg of protein per sample) and 12 concentrations of test compound were preincubated for 30 min with a fixed concentration fo epinephrine (5 μM for α2A, 15 μM for α2B, 5 μM for α2C) in 50 mM Tris, 5 mM MgCl2, 150 mM NaCl, 1 mM DTT, 1 mM EDTA, 10 μM GDP, 30 μM ascorbic acid, pH 7.4 at room temperature. Binding of radiolabel was started by the addition of trace amounts of ^35S-GTPγS (0.08-0.15 nM, specific activity 1250 Ci/mmol)
as §3

[5] = molecular target: T2, human alpha-2C-adrenoceptor; assay: as above; type: biochemical; details: Mean ± SEM; CHO cell membranes, human α2C; 5 μM epinephrine; read-out: KB alpha-2C antagonist effect
Description: as §4
as §3, with “Experimentally determined IC50 values were converted to Ki's by making use of the Cheng-Prusoff equation (Cheng and Prusoff, 1973).” left out

[6] = molecular target: T3, human alpha-2B-adrenoceptor; assay: as above; type: biochemical; details: Mean ± SEM; CHO cell membranes, human α2B; 15 μM epinephrine; read-out: KB alpha-2B antagonist effect
Description: as §4
as §3, with “Experimentally determined IC50 values were converted to Ki's by making use of the Cheng-Prusoff equation (Cheng and Prusoff, 1973).” left out

Row | Compound | Ki [1] [µM] | Ki [2] [µM] | Ki [3] [µM] | Kb [4] [µM] | Kb [5] [µM] | Kb [6] [µM]
1 | Cc1cc(C)nc(NS(=O)(=O)c2ccc(NC(c3ccccc3)c3ccccc3)cc2)n1 [Compound H, 4-(Benzhydrylamino)-N-(4,6-dimethylpyrimidin-2-yl)-benzenesulfonamide] | > 30 | > 30 | 8 ± 0.5 | – | – | –
2 | COc1cccc(CNc2ccc(S(=O)(=O)Nc3nc(C)cc(C)n3)cc2)c1 [Compound E, N-(4,6-Dimethylpyrimidin-2yl-)4(3-methoxybenzylamino)-benzenesulfonamide] | > 5.1 | > 10 | 0.02 ± 0.004 | 7.9 ± 3.1 | 7.3 ± 1.1 | 0.029 ± 0.005
3 | Cc1cc(C)nc(NS(=O)(=O)c2ccc(NCc3nc4ccccc4n3CC(C)C)cc2)n1 [Compound A, N-(4,6-Dimethylpyrimidin-2-yl)-4-[(1-isobutyl-1H-benzimidazol-2-ylmethyl)-amino]-benzenesulfonamide] | > 13 | > 30 | 0.16 ± 0.02 | – | – | –
4 | Cc1cc(C)nc(NS(=O)(=O)c2ccc(NCc3ccc4ccccc4c3)cc2)n1 [Compound D, N-(4,6-Dimethylpyrimidin-2-yl)-4-[(naphthalen-2-ylmethyl)-amino]-benzenesulfonamide] | > 10 | > 10 | 0.44 ± 0.07 | – | – | –

The remaining lines, values ahead:

Row | Ki [1] [µM] | Ki [2] [µM] | Ki [3] [µM] | Kb [4] [µM] | Kb [5] [µM] | Kb [6] [µM] | Compound
5 | 2 ± 0.4 | > 10 | – | 5.4 ± 1.4 | 6.3 ± 1.4 | – | Cc1cc(C)nc(NS(=O)(=O)c2ccc(NCc3c(Cl)cccc3Cl)cc2)n1 [Compound C, 4-(2,6Dichlorobenzylamino)-N-(4,6-dimethylpyrimidin-2-yl)-benzenesulfonamide]
6 | > 4.5 | > 10 | 0.034 ± 0.002 | 14.5 ± 3.6 | 5.7 ± 0.7 | 0.075 ± 0.009 | Cc1cc(C)nc(NS(=O)(=O)c2ccc(NCc3ccccc3C)cc2)n1 [Compound B, N-(4,6-Dimethylpyrimidin-2-yl)-4-(2-methylbenzylamino)-benzenesulfonamide]
7 | 2.2 ± 0.6 | > 10 | 0.032 ± 0.005 | 3.2 ± 0.5 | 4.7 ± 1.8 | 0.086 ± 0.064 | COc1ccccc1CCNc1ccc(S(=O)(=O)Nc2nc(C)cc(C)n2)cc1 [Compound G, N-(4,6-Dimethylpyrimidin-2-yl)-4-[2-(2-methoxyphenyl)-ethylamino]-benzenesulfonamide]
8 | > 4.3 | > 10 | 0.043 ± 0.007 | 8.7 ± 1.1 | 12 ± 2 | 0.24 ± 0.06 | CCn1cc(CNc2ccc(S(=O)(=O)Nc3nc(C)cc(C)n3)cc2)c2ccccc21 [Compound F, N-(4,6-Dimethylpyrimidin-2-yl)-4-[(1-ethyl-1H-indol-3-ylmethyl)-amino]-benzenesulfonamide]
